Assays:
Format in all cases: cell-based
NCI-1H226 = experiment: Mesothelioma cell line proliferation assay, H226 (ATPlite); conditions: Homo sapiens, NCI-H226, 144 h, 6 days with compound
Procedure: (§1) Mesothelioma cell lines, NCI-1H226 and NCI-1H2052 (all sourced from the ATCC cell culture collection) are plated in 96-well plates (Corning® 96 Well White Polystyrene Microplate clear flat bottom, white polystyrene (TC-Treated)), at 1500 cells/well in full medium (RPMI 1640 ATCC modification with L-glutamine, HEPES, Phenol Red, Sodium Pyruvate, High glucose, Low sodium bicarbonate and 10% fetal bovine serum). Cells are incubated overnight at 37° C. in an incubator with 5% C02. Then compounds, dissolved in DMSO, are added in dose-response. Cells are incubated with compound dilutions for another 6 days at 37° C. in an incubator with 5% C02. Cell viability is quantitated using the ATPlite kit (Perkin-Elmer) and the luminescence is read-out using an Envision instrument (Perkin-Elmer). The amount of relative light units produced using the ATPlite kit is used to calculated percent of inhibition.
(§2) The activities of some example compounds are depicted in the table below. The activity ranges A, B and C refer to EC50 values in the mesothelioma cell line proliferation assay as described as follows: “A”: EC50<1 μM; “B”: 1 μM s EC50≤10 μM and “C”: EC50≥10 μM; NT: not tested.

NCI-1H2052 = experiment: Mesothelioma cell line proliferation assay, H2052 (ATPlite); conditions: Homo sapiens, NCI-H2052, 144 h, 6 days with compound, read-out: H2025 (EC50)
Procedure: as §1, §2

[1] = test system: YAP/TAZ-TEAD transcription; experiment: Reporter gene assay for measuring the inhibition of YAP/TAZ-TEAD transcription (TEAD-responsive element luciferase reporter in Hek293T cells); conditions: Hek293T cells transiently transfected with TEAD-responsive element luciferase reporter, 24 hours incubation
In short: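 Hek293T cells transiently transfected with a TEAD-responsive element luciferase reporter, plated onto pre-diluted compounds and incubated 24 h at 37 °C/5% CO2. Luminescence read after SteadyLite addition; % inhibition from RLU relative to vehicle (0%) and a positive control inhibitor (100%), giving IC50.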

Compound | IC50 [1] [µM] | IC50 ([1]; Homo sapiens, HEK-293T, 24 h) [µM] | EC50 (NCI-1H226) [µM] | EC50 (NCI-1H2052) [µM]
FC(F)(F)c1ccc(N2CC(C3CC(Br)=NO3)Cc3ccccc32)cc1 (single isomer, unassigned) [Cpd. No. 194(Dia1)-En1, 3-bromo-5-(1-(4-(trifluoromethyl)phenyl)-1,2,3,4-tetrahydroquinolin-3-yl)-4,5-dihydroisoxazole] | < 1 | – | < 1 | < 1
C=CC(=O)NC1Cc2c(OC)cccc2N(c2ccc(C(F)(F)F)cc2)C1 (stereo not drawn) [compound 073, N-(5-methoxy-1-(4-(trifluoromethyl)phenyl)-1,2,3,4-tetrahydroquinolin-3-yl)acrylamide] | – | < 1 | < 1 | –
C=CC(=O)NC1Cc2c(N)cccc2N(c2ccc(C(F)(F)F)cc2)C1 (stereo not drawn) [compound 075, N-(5-amino-1-(4-(trifluoromethyl)phenyl)-1,2,3,4-tetrahydroquinolin-3-yl)acrylamide] | – | < 1 | < 1 | < 1
C=CC(=O)NCC1Cc2ccccc2N(c2ccc(C(F)(F)F)cc2F)C1 (stereo not drawn) [compound 113, N-((1-(2-fluoro-4-(trifluoromethyl)phenyl)-1,2,3,4-tetrahydroquinolin-3-yl)methyl)acrylamide] | – | < 1 | < 1 | –
C=CC(=O)NCC1Cc2c(C)cccc2N(c2ccc(C(F)(F)F)cc2)C1 (stereo not drawn) [compound 128, N-((5-methyl-1-(4-(trifluoromethyl)phenyl)-1,2,3,4-tetrahydroquinolin-3-yl)methyl)acrylamide] | – | < 1 | < 1 | –
C=CC(=O)N(C)CC1Cc2ccccc2N(c2ccc(C(F)(F)F)cc2)C1 (stereo not drawn) [compound 134, N-methyl-N-((1-(4-(trifluoromethyl)phenyl)-1,2,3,4-tetrahydroquinolin-3-yl)methyl)acrylamide] | – | < 1 | < 1 | –
C=CC(=O)NC1Cc2ccccc2N(Cc2ccc(C(F)(F)F)cc2)C1 (stereo not drawn) [compound 181, N-(1-(4-(trifluoromethyl)benzyl)-1,2,3,4-tetrahydroquinolin-3-yl)acrylamide] | – | < 1 | < 1 | –
O=S(=O)(O)CCNCC1Cc2ccccc2N(c2ccc(C(F)(F)F)cc2)C1 (stereo not drawn) [compound 183, 2-(((1-(4-(trifluoromethyl)phenyl)-1,2,3,4-tetrahydroquinolin-3-yl)methyl)amino)ethane-1-sulfonic acid] | – | > 20 | – | –
C=CC(=O)NCC1Cc2ccccc2N(Cc2ccc(C(F)(F)F)cc2)C1 (stereo not drawn) [compound 184, N-((1-(4-(trifluoromethyl)benzyl)-1,2,3,4-tetrahydroquinolin-3-yl)methyl)acrylamide] | – | < 1 | < 1 | –
C=CC(=O)NCC1Cc2ccccc2N(Cc2cccc(C(F)(F)F)c2)C1 (stereo not drawn) [compound 185, N-((1-(3-(trifluoromethyl)benzyl)-1,2,3,4-tetrahydroquinolin-3-yl)methyl)acrylamide] | – | < 1 | – | –
C=CC(=O)NC1Cc2ccccc2N(S(=O)(=O)c2cccc(C(F)(F)F)c2)C1 (stereo not drawn) [compound 186, N-(1-((3-(trifluoromethyl)phenyl)sulfonyl)-1,2,3,4-tetrahydroquinolin-3-yl)acrylamide] | – | < 1 | – | –
C=CC(=O)NC1Cc2ccccc2N(S(=O)(=O)c2ccc(C(F)(F)F)cc2)C1 (stereo not drawn) [compound 187, N-(1-((4-(trifluoromethyl)phenyl)sulfonyl)-1,2,3,4-tetrahydroquinolin-3-yl)acrylamide] | – | < 1 | – | –
CCC(=O)NCC1CCc2ccccc2N1c1ccc(C(F)(F)F)cc1 (stereo not drawn) [compound 188, N-((1-(4-(trifluoromethyl)phenyl)-1,2,3,4-tetrahydroquinolin-2-yl)methyl)propionamide] | – | > 20 | – | –
C=CC(=O)NCC1CCc2ccccc2N1Cc1ccc(C(F)(F)F)cc1 (stereo not drawn) [compound 189, N-((1-(4-(trifluoromethyl)benzyl)-1,2,3,4-tetrahydroquinolin-2-yl)methyl)acrylamide] | – | < 1 | – | –
C=CC(=O)NCC1CCc2ccccc2N1Cc1cccc(C(F)(F)F)c1 (stereo not drawn) [compound 190, N-((1-(3-(trifluoromethyl)benzyl)-1,2,3,4-tetrahydroquinolin-2-yl)methyl)acrylamide] | – | < 1 | – | –
C=CC(=O)NC1Cc2ccccc2N(Cc2ccc(Br)cc2)C1 (stereo not drawn) [compound 191, N-(1-(4-bromobenzyl)-1,2,3,4-tetrahydroquinolin-3-yl)acrylamide] | – | < 1 | – | –

Second part, led by results:

IC50 [1] [µM] | IC50 ([1]; Homo sapiens, HEK-293T, 24 h) [µM] | Compound | EC50 (NCI-1H226) [µM] | EC50 (NCI-1H2052) [µM]
– | < 1 | C=CC(=O)NC1Cc2nc(N)ccc2N(c2ccc(C(F)(F)F)cc2)C1 (stereo not drawn) [Cpd. No. 140, N-(6-amino-1-(4-(trifluoromethyl)phenyl)-1,2,3,4-tetrahydro-1,5-naphthyridin-3-yl)acrylamide] | < 1 | < 1
– | < 1 | C=CC(=O)NCC1Cc2c(N)cccc2N(c2ccc(C(F)(F)F)cc2)C1 (stereo not drawn) [Cpd. No. 153, N-((5-amino-1-(4-(trifluoromethyl)phenyl)-1,2,3,4-tetrahydroquinolin-3-yl)methyl)acrylamide] | < 1 | < 1
– | < 1 | CC(=O)NCC1Cc2c(C#N)cccc2N(c2ccc(C(F)(F)F)cc2)C1 (stereo not drawn) [Cpd. No. 154, N-((5-cyano-1-(4-(trifluoromethyl)phenyl)-1,2,3,4-tetrahydroquinolin-3-yl)methyl)acetamide] | < 1 | 1 to 10
– | < 1 | C=CC(=O)NCC1Cc2c(CC#N)cccc2N(c2ccc(C(F)(F)F)cc2)C1 (stereo not drawn) [Cpd. No. 163, N-((5-(cyanomethyl)-1-(4-(trifluoromethyl)phenyl)-1,2,3,4-tetrahydroquinolin-3-yl)methyl)acrylamide] | < 1 | < 1
– | < 1 | C=CC(=O)NC(C)C1Cc2ccccc2N(c2ccc(C(F)(F)F)cc2)C1 (stereo not drawn) [Cpd. No. 192, N-(1-(1-(4-(trifluoromethyl)phenyl)-1,2,3,4-tetrahydroquinolin-3-yl)ethyl)acrylamide] | < 1 | < 1
– | < 1 | FC(F)(F)c1ccc(N2CC(C3CC(Br)=NO3)Cc3ccccc32)cc1 (stereo not drawn) [Cpd. No. 194, 3-bromo-5-(1-(4-(trifluoromethyl)phenyl)-1,2,3,4-tetrahydroquinolin-3-yl)-4,5-dihydroisoxazole] | < 1 | ≥ 10
– | < 1 | C=CC(=O)NC1Cc2ccccc2N(c2ccc(OC(F)(F)F)cc2)C1 (stereo not drawn) [compound 021, N-(1-(4-(trifluoromethoxy)phenyl)-1,2,3,4-tetrahydroquinolin-3-yl)acrylamide] | < 1 | –
– | < 1 | C=CC(=O)NC1Cc2ccccc2N(c2ccc(S(F)(F)(F)(F)F)cc2)C1 (stereo not drawn) [compound 023, N-(1-(4-(pentafluoro-λ^6-sulfaneyl)phenyl)-1,2,3,4-tetrahydroquinolin-3-yl)acrylamide] | < 1 | –
– | < 1 | C=CC(=O)NC1Cc2ccccc2N(c2ccc(C(F)(F)F)c(F)c2)C1 (stereo not drawn) [compound 028, N-(1-(3-fluoro-4-(trifluoromethyl)phenyl)-1,2,3,4-tetrahydroquinolin-3-yl)acrylamide] | < 1 | < 1
– | < 1 | C=CC(=O)NC1Cc2ccccc2N(c2ccc(C(F)(F)F)cc2F)C1 (stereo not drawn) [compound 029, N-(1-(2-fluoro-4-(trifluoromethyl)phenyl)-1,2,3,4-tetrahydroquinolin-3-yl)acrylamide] | < 1 | < 1
– | < 1 | C=CC(=O)NC1Cc2ccccc2N(c2ccc(SC(F)(F)F)cc2)C1 (stereo not drawn) [compound 030, N-(1-(4-((trifluoromethyl)thio)phenyl)-1,2,3,4-tetrahydroquinolin-3-yl)acrylamide] | < 1 | –
– | < 1 | C=C(F)C(=O)NC1Cc2ccccc2N(c2ccc(C(F)(F)F)cc2)C1 (stereo not drawn) [compound 039, 2-fluoro-N-(1-(4-(trifluoromethyl)phenyl)-1,2,3,4-tetrahydroquinolin-3-yl)acrylamide] | < 1 | < 1
– | < 1 | C=CC(=O)NC1Cc2c(Cc3cccnc3)cccc2N(c2ccc(C(F)(F)F)cc2)C1 (stereo not drawn) [compound 059, N-(5-(pyridin-3-yl-methyl)-1-(4-(trifluoromethyl)phenyl)-1,2,3,4-tetrahydroquinolin-3-yl)acrylamide] | < 1 | –
– | < 1 | C=CC(=O)NC1Cc2c(F)cccc2N(c2ccc(C(F)(F)F)cc2)C1 (stereo not drawn) [compound 060, N-(5-fluoro-1-(4-(trifluoromethyl)phenyl)-1,2,3,4-tetrahydroquinolin-3-yl)acrylamide] | < 1 | < 1
– | < 1 | C=CC(=O)NC1Cc2c(C)cccc2N(c2ccc(C(F)(F)F)cc2)C1 (stereo not drawn) [compound 064, N-(5-methyl-1-(4-(trifluoromethyl)phenyl)-1,2,3,4-tetrahydroquinolin-3-yl)acrylamide] | < 1 | –

From patent publication US20240025856A1, “1,2,3,4-TETRAHYDROQUINOLINE DERIVATIVES AS INHIBITORS OF THE YAP/TAZ-TEAD ACTIVATION FOR TREATING CANCER” (KATHOLIEKE UNIVERSITEIT LEUVEN, priority 2020, published 2024)
